Where a name gives a salt, the structure may show the parent alone. Read-outs that look alike come from different tables or passages of the source.
How the values were obtained:
Acute toxicity in rats = assay: Acute toxicity in rats; design: species or system Sprague Dawley albino rats; settings: rat, in vivo; for LD50 at 240 h: 10 days observation, read-out: DL50
Text: Sprague Dawley albino rats having an average weight of about 150 g, subdivided into groups of 10 animals (5 males and 5 females) were used for each dose and for each method of administration.
The methods of administration were: oral by means of a gastric probe, intramuscular and endovenous into the caudal vein.
(§1) The observation time after administration was 10 days.

[1] = test system: granuloma from cotton pellets; assay: Anti-inflammatory activity, granuloma induced by cotton pellets; format: in vivo, female albino rats of the Sprague Dawley strain; settings: for Average dry weight of the granuloma (average ± s.e.): in mg (unit assumed)
Protocol: The test consists of evaluating the capacity of the substances under examination to inhibit the formation of granuloma following the subcutaneous implantation of extraneous bodies (in this case, cotton pellets). […] One group of animals was used as a control. […] After the subcutaneous implant of 2 cotton pellets each having a weight of 20 mg into the dorsal region, the animals were administered daily, for 4 consecutive days, with the substances under examination in the doses given above.

[2] = Solubility at 25° C. (w/v), saturated solutions, Elson-Morgan colorimetric method; format: physicochemical; settings: for solubility thermodynamic: w/v
Protocol: Solubility (at 25° C.--w/v).
This test was carried out by preparing saturated solutions of glucosamine-SP in various solvents and determining the concentration of the glucosamine by the Elson-Morgan colorimetric method mentioned above.

mice-embryo fibroblast [3] = assay: Stimulation of the production of tissue-bound GAG in mice-embryo fibroblast cultures, uptake of ^35 S; format: cell-based, mice (strain C57 BL/6 stCrl)
Protocol: (§2) For this purpose, primary cultures of mice-embryo fibroblasts (strain C57 BL/6 stCrl) were prepared by mechanical and enzymatic dissociation (in Trypsin Versene mixture-Microbiological Associates) of the embryos taken from the mother on the 18th day of pregnancy. The culture medium is the Eagle medium modified by Dulbecco and supplemented with 15% of calf foetus serum. The incubation atmosphere consists of 5% of carbon dioxide in air at 37° C. 24 hours after innoculation, the medium is replaced by a new medium containing the drug under examination and the radioactive precursor (Na2^35 SO4) for the measurement of the synthesis both of soluble and tissue-bound GAG; the culture is left to incubate for a further 24 hours and then the culture medium (containing the soluble GAG) and fibroblasts (containing the tissue-bound GAG) are separated.
(§3) The soluble GAG are isolated from the culture medium by precipitation with a solution of 5% trichloroacetic acid in ice-water while the fibroblast residues, containing the tissue-bound GAG, after repeated washings with physiological solutions, are dissolved in [sequence] or VERSENE.
(§4) The quantity of ^35 S incorporated both in the soluble GAG and in the tissue-bound GAG are evaluated by the usual scintillation methods and expressed in cpm (counts per minute).
(§5) The tests were carried out five times for each sample in order to allow the results to be evaluated statistically.

Acute toxicity in mice = assay: Acute toxicity in mice; design: species or system Swiss NMRI mice; settings: mouse, in vivo; for LD50 at 240 h: 10 days observation, read-out: DL50
Text: Swiss NMRI mice having an average weight of 20±2 g, subdivided in groups of 10 animals (5 females and 5 males) were used for each dose and for each method of administration.
The methods of administration were: oral by means of gastric probe, intramuscular and endovenous into the caudal vein.
as §1

mice-embryo fibroblast [4] = assay: Stimulation of the production of soluble GAG in mice-embryo fibroblast cultures, uptake of ^35 S; format: cell-based, mice (strain C57 BL/6 stCrl)
Protocol: as §2, §3, §4, §5

pH of aqueous solution = format: physicochemical
Protocol: The pH of an aqueous saturated solution of glucosamine-SP at 20° C. is 3.0±0.2.

physchem = settings: solid storage
[5] = im, intramuscular, max. dose 3750 mg/kg
[6] = iv, endovenous, max. dose 1875 mg/kg
[7] = 375 mg/kg/os daily, 4 days (= 300 mg/kg glucosamine sulphate)
[8] = 750 mg/kg/os daily, 4 days (= 600 mg/kg glucosamine sulphate)

Structure (SMILES): N[C@H]1C(O)O[C@H](CO)[C@@H](O)[C@@H]1O (stereo partly shown) [Glucosamine-SP, mixed salt of glucosamine sulphate and sodium chloride]
- Appearance (15° C., 30% R.H., 0 days): 1
- Titre of glucosamine (15° C., 30% R.H., 0 days): 101.2%
- Appearance (15° C., 30% R.H., 7 days): 1
- Appearance (15° C., 30% R.H., 15 days): 1
- Appearance (15° C., 30% R.H., 30 days): 1
- Appearance (15° C., 30% R.H., 60 days): 1
- Appearance (15° C., 30% R.H., 120 days): 1
- Appearance (15° C., 30% R.H., 360 days): 1
- Appearance (15° C., 45% R.H., 0 days): 1
- Titre of glucosamine (15° C., 45% R.H., 0 days): 100.7%
- Appearance (15° C., 45% R.H., 7 days): 1
- Appearance (15° C., 45% R.H., 15 days): 1
- Appearance (15° C., 45% R.H., 30 days): 1
- Appearance (15° C., 45% R.H., 60 days): 1
- Appearance (15° C., 45% R.H., 120 days): 1
- Appearance (15° C., 45% R.H., 360 days): 1
- Appearance (15° C., 60% R.H., 0 days): 1
- Titre of glucosamine (15° C., 60% R.H., 0 days): 101.2%
- Appearance (15° C., 60% R.H., 3 days): 1
- Appearance (15° C., 60% R.H., 6 days): 1
- Appearance (15° C., 60% R.H., 12 days): 1
- Appearance (15° C., 60% R.H., 24 days): 1
- Appearance (15° C., 60% R.H., 36 days): 1
- Appearance (15° C., 60% R.H., 48 days): 1
- Appearance (25° C., 30% R.H., 0 days): 1
- Appearance (25° C., 30% R.H., 7 days): 1
- Appearance (25° C., 30% R.H., 15 days): 1
- Appearance (25° C., 30% R.H., 30 days): 1
- Appearance (25° C., 30% R.H., 60 days): 1
- Appearance (25° C., 30% R.H., 120 days): 1
- Appearance (25° C., 30% R.H., 360 days): 1
- Appearance (25° C., 45% R.H., 0 days): 1
- Titre of glucosamine (25° C., 45% R.H., 0 days): 98.9%
- Appearance (25° C., 45% R.H., 3 days): 1
- Appearance (25° C., 45% R.H., 6 days): 1
- Appearance (25° C., 45% R.H., 12 days): 1
- Appearance (25° C., 45% R.H., 24 days): 1
- Appearance (25° C., 45% R.H., 36 days): 1
- Appearance (25° C., 45% R.H., 48 days): 1
- Appearance (25° C., 60% R.H., 0 hours): 1
- Titre of glucosamine (25° C., 60% R.H., 0 hours): 100.7%
- Appearance (25° C., 60% R.H., 2 hours): 1
- Appearance (25° C., 60% R.H., 4 hours): 1
- Appearance (25° C., 60% R.H., 8 hours): 1
- Appearance (25° C., 60% R.H., 16 hours): 1
- Appearance (25° C., 60% R.H., 24 hours): 1
- Appearance (25° C., 60% R.H., 36 hours): 1
- Preservation after one year (25° C., 60% relative humidity, one year): perfectly preserved
- Colour change (40° C., 85% relative humidity, about 12 months): slight darkening of the colour
- Change in the subsequent 12 months (40° C., 85% relative humidity, months 12 to 24): remains constant
- Appearance scale value assigned in all the tests (all temperature/humidity conditions of Tables 1 to 6): 1
- Sensitivity to ambient relative humidity (even at high temperatures): practically negligible
- Titre of glucosamine (solid storage, 8 h): 101.2%
- Titre of glucosamine (solid storage, 24 h): 99.2%
- Titre of glucosamine (solid storage, 1152 h): 98.4%
- Titre of glucosamine (solid storage, 1440 h): 98.6%
- LD50 at 240 h (Acute toxicity in rats; im, intramuscular): > 3750 mg/kg
- mortality at 240 h (Acute toxicity in rats; [5]): 0%
- LD50 at 240 h (Acute toxicity in rats; iv, endovenous): > 1880 mg/kg
- mortality at 240 h (Acute toxicity in rats; [6]): 0%
- LD50 at 240 h (Acute toxicity in rats; oral): > 6250 mg/kg
- mortality at 240 h (Acute toxicity in rats; oral, max. dose 6250 mg/kg): 0%
- % Inhibition of granuloma [1, 7]: 38.7%
- Average dry weight of the granuloma (average ± s.e.) [1, 7]: 94.6 ± 10.7
- % Inhibition of granuloma [1, 8]: 58.0%
- Average dry weight of the granuloma (average ± s.e.) [1, 8]: 64.8 ± 7.0
- Solubility (in words) ([2]; benzene, chloroform, carbon tetrachloride, methylene chloride, ligroin, ethyl ether): insoluble
- solubility thermodynamic ([2]; organic solvent or mixture, acetone, acetonitrile, tetrahydrofuran, dioxan (each)): < 100 µg/mL
- solubility thermodynamic ([2]; organic solvent or mixture, ethanol): ~300 µg/mL
- solubility thermodynamic ([2]; organic solvent or mixture, methanol): ~10000 µg/mL
- solubility thermodynamic ([2]; water): ~400000 µg/mL
- Tissue-bound GAG synthesis (mice-embryo fibroblast [3]; 12.5 γ/ml): 5490 ± 604 cpm
- Tissue-bound GAG synthesis (mice-embryo fibroblast [3]; 62.5 γ/ml): 7780 ± 612 cpm
- Tissue-bound GAG synthesis (mice-embryo fibroblast [3]; 125 γ/ml): 8320 ± 1295 cpm
- activation at 12.5 µg/mL (mice-embryo fibroblast [3]; Mus musculus, Fibroblast, 24 h, 12.5 γ/ml, read-out: Δ % over non-treated controls, tissue-bound GAG): 17.3%
- activation at 62.5 µg/mL (mice-embryo fibroblast [3]; Mus musculus, Fibroblast, 24 h, 62.5 γ/ml, read-out: Δ % over non-treated controls, tissue-bound GAG): 66.2%
- activation at 125 µg/mL (mice-embryo fibroblast [3]; Mus musculus, Fibroblast, 24 h, 125 γ/ml, read-out: Δ % over non-treated controls, tissue-bound GAG): 77.8%
- LD50 at 240 h (Acute toxicity in mice; im, intramuscular): > 3750 mg/kg
- mortality at 240 h (Acute toxicity in mice; [5]): 0%
- LD50 at 240 h (Acute toxicity in mice; iv, endovenous): > 1880 mg/kg
- mortality at 240 h (Acute toxicity in mice; [6]): 0%
- LD50 at 240 h (Acute toxicity in mice; oral): > 6250 mg/kg
- mortality at 240 h (Acute toxicity in mice; oral, max. dose 6250 mg/kg): 0%
- Soluble GAG synthesis, average ± s.e. (mice-embryo fibroblast [4]; 12.5 γ/ml): 6750 ± 718 cpm
- Soluble GAG synthesis, average ± s.e. (mice-embryo fibroblast [4]; 62.5 γ/ml): 12730 ± 1201 cpm
- Soluble GAG synthesis, average ± s.e. (mice-embryo fibroblast [4]; 125 γ/ml): 12440 ± 1473 cpm
- activation at 12.5 µg/mL (mice-embryo fibroblast [4]; Mus musculus, Fibroblast, 24 h, 12.5 γ/ml, read-out: Δ % over non-treated controls, soluble GAG): 15.8%
- activation at 62.5 µg/mL (mice-embryo fibroblast [4]; Mus musculus, Fibroblast, 24 h, 62.5 γ/ml, read-out: Δ % over non-treated controls, soluble GAG): 118%
- activation at 125 µg/mL (mice-embryo fibroblast [4]; Mus musculus, Fibroblast, 24 h, 125 γ/ml, read-out: Δ % over non-treated controls, soluble GAG): 113%
- pH of an aqueous saturated solution (pH of aqueous solution; 20° C.): 3.0±0.2
- natural pH at the concentrations used (pH of aqueous solution; injectable phial concentrations): about 3
- degraded at 8760 h (physchem; 85% rh): 3 to 4%
- remaining at 36 h (physchem; Titre of glucosamine): 100%
- remaining at 1152 h (physchem; Titre of glucosamine): 101%
